Source: US10188690B2, “Use of Kaempferia parviflora wall. ex. baker extracts or flavone compound for preventing or treating muscle diseases, or improving muscle function” (AAT COSTECH CO., LTD., priority 2012, dated 2019)

How the values were obtained:
Wistar rats = assay: Muscle mass in the TNF-α-induced myatrophy animal model; type: in vivo; settings: once daily for eight weeks, extract 500 mg/kg, flavones 300 mg/kg; for Calf muscle weight: TNF-α 100 ng/g for two weeks, TNF-α control 437 mg; for muscle weight compared to the control levels: TNF-α-induced myatrophy, p<0.01
Description: Five-week-old Wistar rats were acclimated for one week and myatrophy was induced by supplying TNF-α at the dose of 100 ng/g for two weeks. Afterwards, rats were randomly divided according to body weight into a total of 4 groups, each consisting of 8 rats. Each of the Kaempferia parviflora extract and flavone compounds was suspended in 0.25% carboxymethylcellulose and administered once daily for eight weeks at the dose of 500 mg/kg body weight for the Kaempferia parviflora extract, 300 mg/kg body weight for each of 5,7-dimethoxyflavone, 5,7,4′-trimethoxyflavone and 3,5,7,3′,4′-pentamethoxyflavone. The control group was administered with the same amount of 0.25% carboxymethylcellulose only as well as TNF-α.
After eight weeks of treatments, calf muscles were dissected out and weighed using microbalance (Mettler PE160, USA).

myoD = assay: RT-PCR of myoD mRNA in differentiated L6 cells; type: cell-based; settings: 5,7-dimethoxyflavone 1 or 5 μM (FIG. 2), extract 1 or 10 μg/ml (FIG. 4), normalized by β-actin
myogenin = assay: RT-PCR of myogenin mRNA in differentiated L6 cells; type: cell-based; settings: 5,7-dimethoxyflavone 1 or 5 μM (FIG. 2), extract 1 or 10 μg/ml (FIG. 4), normalized by β-actin
p-mTOR = assay: Western blot of p-mTOR protein in L6 cells; type: cell-based; settings: 5,7-dimethoxyflavone 1 or 5 μM (FIG. 3), extract 1 or 10 μg/ml (FIG. 5)
Description: (§1) Muscle cell-line L6 myoblast (American Type Culture Collection, Manassas, Va., USA) was cultured in DMEM (10% FBS, 100 U/mL penicillin, 100 µg/mL streptomycin). When the cell density reached approximately 80˜85%, differentiation was induced for six days by replacing the culture medium with DMEM growth medium supplemented with 2% FBS for further experiments. In order to evoke muscle reduction in the differentiated L6 cells, cells were treated with TNF-α for 24 hours followed by the treatment with 5,7-dimethoxyflavone prepared in Example 2-1 at different concentrations (1 or 5 μM). RT-PCR experiments were performed to examine the expression levels of atrogin-1 and MuRF1, major ligases involved in protein catabolism in the muscles. Total RNA was obtained from the differentiated cells using Trizol (Invitrogen, Carlsbad, Calif., USA) and subjected to reverse transcription as follows. Total RNA isolated as above was reverse-transcribed using reverse transcriptases. The following primers were used for RT-PCR experiments.
(§2) L6 cells were treated in the same manner as Experimental example 1, and were lysed with RIPA buffered solution containing a proteinase inhibitor cocktail. […] Protein bands were visualized using ECL western blotting detected reagents (Amersham, Tokyo, Japan). […]

PI3K = assay: Western blot of PI3K protein in L6 cells; type: cell-based; settings: 5,7-dimethoxyflavone 1 or 5 μM (FIG. 3), extract 1 or 10 μg/ml (FIG. 5)
Description: as §1, §2

p-Akt = assay: Western blot of p-Akt protein in L6 cells; type: cell-based; settings: 5,7-dimethoxyflavone 1 or 5 μM (FIG. 3), extract 1 or 10 μg/ml (FIG. 5)
Description: as §1, §2

atrogin-1 = assay: RT-PCR of atrogin-1 mRNA in differentiated L6 cells treated with TNF-α; type: cell-based; settings: TNF-α 24 hours, then 5,7-dimethoxyflavone 1 or 5 μM, normalized by β-actin, FIG. 1
Description: as §1
(§3) Relative levels of mRNA for each gene was normalized by the value of β-actin.

MuRF1 = assay: RT-PCR of MuRF1 mRNA in differentiated L6 cells treated with TNF-α; type: cell-based; settings: TNF-α 24 hours, then 5,7-dimethoxyflavone 1 or 5 μM, normalized by β-actin, FIG. 1
Description: as §1, §3

| SMILES | Calf muscle weight (Wistar rats) [mg] | muscle weight compared to the control levels (Wistar rats) [%] | mRNA level of myoD (myoD) | mRNA level of myogenin (myogenin) | protein level of p-mTOR (p-mTOR) | protein level of PI3K (PI3K) | protein level of p-AKT (p-Akt) | mRNA level of atrogin-1 (atrogin-1) | mRNA level of MuRF1 (MuRF1) |
| --- | --- | --- | --- | --- | --- | --- | --- | --- | --- |
| COc1cc(OC)c2c(=O)c(OC)c(-c3ccc(OC)c(OC)c3)oc2c1 [3,5,7,3′,4′-pentamethoxyflavone] | 528 | 120 | – | – | – | – | – | – | – |
| COc1ccc(-c2cc(=O)c3c(OC)cc(OC)cc3o2)cc1 [5,7,4′-trimethoxyflavone] | 519 | 118 | – | – | – | – | – | – | – |
| COc1cc(OC)c2c(=O)cc(-c3ccccc3)oc2c1 [5,7-dimethoxyflavone] | 551 | 126 | increases | increases | upregulate | upregulate | upregulate | reduces | reduces |
